Measurements taken from patent US20250250300A1, “COMPOSITIONS AND METHODS FOR TREATING PSEUDOMYXOMA PERITONEI” (UNIVERSITY OF SOUTH CAROLINA, priority 2024, published 2025).
pIC50: −log10 of the molar value. *1 amine or outer side, *2 acyl side, *3 side chain or, on linkers, in order; H or OH if unused. Where a SMILES comes first, the peptide text is derived from it. Bridges are numbered along the chain shown (N, C = ends). [ ]: non-standard residue; d: D form. The star is where a group is joined. X2 = NC(=O)C[C@@H](O)[C@@H](N[*:1])C(=O)[*:2]; d(aThr) = C[C@@H](O)[C@@H](N)C(=O)O; NMeF = CN[C@@H](Cc1ccccc1)C(=O)O; X1 = CC[C@@H](C)CCCCCCCCCCC(=O)*; dNMeN = CN[C@H](CC(N)=O)C(=O)O

Columns and labels:
PMP501-1 cells [1] = test: cell viability assay (crystal violet), PMP501-1; assay type: cell-based, human; settings: for stimulation of proliferation: 33.3 μM (for 3)
Protocol: (§1) To evaluate whether myxomapeptin is the major contributor to the PMP inhibition, 2 were assayed against two PMP cell lines (PMP501-1 and ABX023-1), human colorectal adenocarcinoma cells (HT-29), and human fetal intestinal epithelial cells (FHC) using crystal violet cell viability assay.
(§2) Next, the modulatory effect of 3 and 4 on PMP, HT-29 and FHC cells was evaluated. […] Subsequently, the effect of 3 and 4 on the mitochondrial respiration of ABX023-1 cells was measure in the seahorse mitochondrial stress assay.

HT-29 cells [2] = test: seahorse mitochondrial stress assay, HT-29; assay type: cell-based, human
[3] = test system: human colorectal adenocarcinoma cells (HT-29); test: cell viability assay (crystal violet), HT-29; assay type: cell-based; settings: for effect on proliferation: 33.3 μM (for 3)
Protocol: as §1, §2

ABX023-1 cells [4] = test: seahorse mitochondrial stress assay, ABX023-1; assay type: cell-based, human; settings: 15 μM (for 3), after FCCP supplementation
Protocol: (§3) FIG. 4C depicts seahorse mitochondrial stress assay of 3 and 4 toward ABX023-1 cell lines, from which the normalized oxygen consumption rate (OCR) and normalized extracellular acidification rate (ECAR) were measured. The OCR was measured at baseline and in response to sequential injections of oligomycin (O), carbonyl cyanide-p-trifluoromethoxyphenyl-hydrazon (FCCP), and rotenone with antimycin (RA).
as §2

FHC cells [5] = test: seahorse mitochondrial stress assay, FHC; assay type: cell-based, human; settings: for mitochondrial respiration (normalized OCR and ECAR): normalized per 1,000 cells
Protocol: as §3, with “3C” for “4C”, “2” for “3”, “5-FU (positive control)” for “4”, “FHC” for “ABX023-1”
(§4) As tumor cells requires larger energy supply that relies on mitochondrial respiration and glycolysis, we sought to explore the effect of myxomapeptins on PMP cell energy metabolism using seahorse mitochondrial stress assay. The normalized oxygen consumption rate (OCR; proportional to mitochondrial respiration) and normalized extracellular acidification rate (ECAR; proportional to glycolysis) were measured for PMP501-1 cells and FHC in the presence of 2, 5-fluorouracil (5-FU) or vehicle.
as §2

[6] = test system: human fetal intestinal epithelial cells (FHC); test: crystal violet cell viability assay, FHC; assay type: cell-based; settings: for effect on proliferation: 33.3 μM (for 3)
Protocol: as §1, §2

ABX023-1 cells [7] = test: crystal violet cell viability assay, ABX023-1; assay type: cell-based, human; settings: for stimulation of proliferation: 33.3 μM (for 3)
Protocol: as §1, §2

PMP501-1 cells [8] = test: seahorse mitochondrial stress assay, PMP501-1; assay type: cell-based, human; settings: PMP501-1, normalized per 1,000 cells
Protocol: as §3, with “3B” for “4C”, “2” for “3”, “5-FU (positive control)” for “4”, “PMP501-1cell” for “ABX023-1 cell”
as §4

[9] = reported; cited from earlier work
FHC cells [10] = test: cell uptake, LCMS of cell lysate, FHC; assay type: cell-based, human; settings: compound fed, 5 days of incubation
Description: (§5) Due to the inability of entering target cells passively, most cyclic lipopeptides are reported to perform biological functions by disrupting cell wall biosynthesis or the integrity of cell membranes. Given that myxomapeptins influence mitochondrial respiration and glycolysis, which occur in the cytoplasm, without wishing to be bound by theory, it was hypothesized that myxomapeptins are likely able to enter PMP cells. To this end, 2 was fed into the cultures of PMP501-1, ABX023-1, HT-29 and FHC cells with normalized cell density. After 5 days of incubation and a thorough wash, the cells were lysed and extracted by butanol for LCMS analysis. By calculating the ratio of 2 in cell lysis versus control extracts, 18.9% and 26.7% of 2 were found in the lysates of PMP501-1 and ABX023-1, whereas only 6.1% and 4.1% were detected from the lysates of HT-29 and FHC, respectively (FIG. 3A).

ABX023-1 cells [11] = test: cell uptake, LCMS of cell lysate, ABX023-1; assay type: cell-based, human; settings: for ratio of compound in cell lysis versus control extracts: ABX023-1, compound fed, 5 days of incubation
Description: as §5
(§6) Next, to study the percentage of myxomapeptins contributed by the intracellular PMP498-3 in light of the presence of PMP498-3 bacteria inside the PMP cells, the bacteria was co-cultured with the cell lines tested above.

HT-29 cells [12] = test: cell uptake, LCMS of cell lysate, HT-29; assay type: cell-based, human; settings: HT-29, compound fed, 5 days of incubation
Description: as §5

PMP501-1 cells [13] = test: cell uptake, LCMS of cell lysate, PMP501-1; assay type: cell-based, human; settings: for ratio of compound in cell lysis versus control extracts: PMP501-1, compound fed, 5 days of incubation
Description: as §5, §6

[14] = antimicrobial activity test; assay type: cell-based; settings: 64 μg/mL
Protocol: Next, the absolute configuration of amino acid residues in 1 and 2 were determined by advanced Marfey's analysis after acid hydrolysis. After derivatization with (L)-and (D)-1-fluoro-2-4-dinitrophenyl-5-L-alanine amide (FDAA), the acid hydrolysate of 1 and 2 together with amino acid standards were analyzed by LCMS. […] Besides, the analysis allowed assignment of non-canonical amino acids as (2S,3R)-MeDap, (2R,4S)—Y—OH-Gln and (2S,3R)-B-Me-Glu in the structures of 1 and 2. Thus, the structures inclusive of absolute configuration of 1 and 2 are unambiguously assigned (FIG. 2C), and were named myxomapeptins A and B based on the source of the producing strain. Myxomapeptins are a new class of depsi cyclic lipopeptide consisting of eight amino acid residues that features N-methylation, C-methylation and hydroxylation, and a-proton epimerization.

O=C(O)/C=C/c1ccc(O)cc1 [Compound 3, p-coumaric acid]
stimulation of proliferation (PMP501-1 cells [1]): ~20%
stimulatory effect on oxygen consumption (HT-29 cells [2]): no substantial stimulatory effect
effect on proliferation [3]: no effect
increase of maximum respiratory capacity (ABX023-1 cells [4]): 25%
stimulatory effect on oxygen consumption (FHC cells [5]): no substantial stimulatory effect
effect on proliferation [6]: no effect
stimulation of proliferation (ABX023-1 cells [7]): ~20%

N[C@@H](Cc1ccc(O)cc1)C(=O)O [Compound 4, L-tyrosine]
stimulation of proliferation (PMP501-1 cells [1]): no discernible effect
effect on proliferation [3]: no discernible effect
increase of maximum respiratory capacity (ABX023-1 cells [4]): do not have any effect
effect on proliferation [6]: no discernible effect
stimulation of proliferation (ABX023-1 cells [7]): no discernible effect

O=c1[nH]cc(F)c(=O)[nH]1 [Compound 5-FU, 5-fluorouracil]
mitochondrial respiration (normalized OCR and ECAR) (FHC cells [5]): unselectively inhibited
mitochondrial respiration (normalized OCR and ECAR) (PMP501-1 cells [8]): unselectively inhibited

CC[C@@H](C)CCCCCCCCCCC(=O)N[C@H]1C(=O)N[C@@H](CC(=O)O)C(=O)N[C@H](CO)C(=O)N[C@@H](CO)C(=O)N(C)[C@H](CC(N)=O)C(=O)N(C)[C@@H](Cc2ccccc2)C(=O)N[C@H]([C@H](O)CC(N)=O)C(=O)N[C@H](CCC(=O)O)C(=O)O[C@@H]1C [Lipopeptin A, lipopeptin A] (X1-[d(aThr)]D[dS]S[dNMeN][NMeF][X2][dE]; ester 1-C)
antibacterial and antifungal activities [9]: reported to possess antibacterial and antifungal activities

CCCCCCCCCC(=O)N[C@@H](Cc1c[nH]c2ccccc12)C(=O)N[C@H](CC(N)=O)C(=O)N[C@@H](CC(=O)O)C(=O)N[C@@H]1C(=O)NCC(=O)N[C@@H](CCCN)C(=O)N[C@@H](CC(=O)O)C(=O)N[C@H](C)C(=O)N[C@@H](CC(=O)O)C(=O)NCC(=O)N[C@H](CO)C(=O)N[C@@H]([C@H](C)CC(=O)O)C(=O)N[C@@H](CC(=O)c2ccccc2N)C(=O)O[C@@H]1C [daptomycin]
ratio of compound in cell lysis versus control extracts (FHC cells [10]): cannot be detected
ratio of compound in cell lysis versus control extracts (ABX023-1 cells [11]): cannot be detected
ratio of compound in cell lysis versus control extracts (HT-29 cells [12]): cannot be detected
ratio of compound in cell lysis versus control extracts (PMP501-1 cells [13]): cannot be detected

myxomapeptin A [Compound 1]
antimicrobial activity [14]: no antimicrobial activity

myxomapeptin B [Compound 2]
pIC50 (PMP501-1 cells [1]): 4.64
ratio of compound in cell lysis versus control extracts (FHC cells [10]): 4.1%
pIC50 [3]: < 4.00
ratio of compound in cell lysis versus control extracts (ABX023-1 cells [11]): 26.7%
percentage of 2 found in cell lysate (ABX023-1 cells [11]; ABX023-1 co-cultured with PMP498-3 bacteria): 30.2%
ratio of compound in cell lysis versus control extracts (HT-29 cells [12]): 6.1%
mitochondrial respiration (normalized OCR and ECAR) (FHC cells [5]): not observed
pIC50 [6]: < 4.00
mitochondrial respiration (normalized OCR and ECAR) (PMP501-1 cells [8]): strongly inhibits
ratio of compound in cell lysis versus control extracts (PMP501-1 cells [13]): 18.9%
percentage of 2 found in cell lysate (PMP501-1 cells [13]; PMP501-1 co-cultured with PMP498-3 bacteria): 22.5%
antimicrobial activity [14]: no antimicrobial activity
pIC50 (ABX023-1 cells [7]): 4.47

neopeptin
antibacterial and antifungal activities [9]: reported to possess antibacterial and antifungal activities
